Columns and labels:
Assay in all cases: relative viability (nuclei count vs DMSO), 5 days (fraction); higher = more cells survive
ABC-1 = test system: ABC-1
In short: (§1)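 Nuclei were stained with Hoechst during a one-step fixation (final 0.05% Triton X-100, 1% formaldehyde, 1 ug/ml Hoechst) carried out 5 days after dosing, then counted on 4× images. The cells, lung cancer lines in 1536-well plates, had been dosed by pin tool the day after seeding with one drug alone or a fixed anchor-drug dose plus five library-drug doses (not always all listed) in √10 steps. Relative viability is the nuclei count in treated wells divided by that in vehicle wells, and each value is the median of duplicate plates.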

EMC-BAC-2 = test system: EMC-BAC-2
In short: as §1

NCI-H23 = test system: NCI-H23
In short: as §1

Calu-6 = test system: Calu-6
In short: as §1

NCI-H1299 = test system: NCI-H1299
In short: as §1

HCC-78 = test system: HCC-78
In short: as §1

NCI-H1703 = test system: NCI-H1703
In short: as §1

A549 = test system: A549
In short: as §1

NCI-H1437 = test system: NCI-H1437
In short: as §1

NCI-H661 = test system: NCI-H661
In short: as §1

NCI-H1395 = test system: NCI-H1395
In short: as §1

EBC-1 = test system: EBC-1
In short: as §1

IA-LM = test system: IA-LM
In short: as §1

SMILES: COCC1(CO)C(=O)C2CCN1CC2 (stereo not drawn) [PRIMA-1MET] + CS(=O)(=O)CCNCc1ccc(-c2ccc3ncnc(Nc4ccc(OCc5cccc(F)c5)c(Cl)c4)c3c2)o1 [Lapatinib] (partner 2 µM)
- relative viability (ABC-1; first compound 0.2 µM): 1.05
- relative viability (ABC-1; first compound 0.6325 µM): 1.11
- relative viability (ABC-1; first compound 2 µM): 0.956
- relative viability (ABC-1; first compound 6.325 µM): 1.17
- relative viability (ABC-1; first compound 20 µM): 1.03
- relative viability (EMC-BAC-2; first compound 0.2 µM): 0.918
- relative viability (EMC-BAC-2; first compound 0.6325 µM): 0.895
- relative viability (EMC-BAC-2; first compound 2 µM): 0.766
- relative viability (EMC-BAC-2; first compound 6.325 µM): 0.89
- relative viability (EMC-BAC-2; first compound 20 µM): 0.897
- relative viability (NCI-H23; first compound 0.2 µM): 1.29
- relative viability (NCI-H23; first compound 0.6325 µM): 0.951
- relative viability (NCI-H23; first compound 2 µM): 0.897
- relative viability (NCI-H23; first compound 6.325 µM): 0.961
- relative viability (NCI-H23; first compound 20 µM): 0.117
- relative viability (Calu-6; first compound 0.2 µM): 1.14
- relative viability (Calu-6; first compound 0.6325 µM): 1.08
- relative viability (Calu-6; first compound 2 µM): 1.11
- relative viability (Calu-6; first compound 6.325 µM): 1.01
- relative viability (Calu-6; first compound 20 µM): 0.847
- relative viability (NCI-H1299; first compound 0.2 µM): 0.977
- relative viability (NCI-H1299; first compound 0.6325 µM): 0.996
- relative viability (NCI-H1299; first compound 2 µM): 0.969
- relative viability (NCI-H1299; first compound 6.325 µM): 0.99
- relative viability (NCI-H1299; first compound 20 µM): 0.947
- relative viability (HCC-78; first compound 0.2 µM): 0.984
- relative viability (HCC-78; first compound 0.6325 µM): 0.539
- relative viability (HCC-78; first compound 6.325 µM): 0.78
- relative viability (HCC-78; first compound 20 µM): 0.686
- relative viability (NCI-H1703; first compound 0.2 µM): 1.25
- relative viability (NCI-H1703; first compound 0.6325 µM): 0.834
- relative viability (NCI-H1703; first compound 2 µM): 1.01
- relative viability (NCI-H1703; first compound 6.325 µM): 1.04
- relative viability (NCI-H1703; first compound 20 µM): 0.145
- relative viability (A549; first compound 0.2 µM): 1.07
- relative viability (A549; first compound 0.6325 µM): 0.977
- relative viability (A549; first compound 2 µM): 1.05
- relative viability (A549; first compound 6.325 µM): 1.01
- relative viability (A549; first compound 20 µM): 0.943
- relative viability (NCI-H1437; first compound 0.2 µM): 0.936
- relative viability (NCI-H1437; first compound 0.6325 µM): 0.703
- relative viability (NCI-H1437; first compound 2 µM): 0.765
- relative viability (NCI-H1437; first compound 6.325 µM): 0.82
- relative viability (NCI-H1437; first compound 20 µM): 0.694
- relative viability (NCI-H661; first compound 0.2 µM): 0.531
- relative viability (NCI-H661; first compound 0.6325 µM): 0.467
- relative viability (NCI-H661; first compound 6.325 µM): 0.493
- relative viability (NCI-H661; first compound 20 µM): 0.266
- relative viability (NCI-H1395; first compound 0.2 µM): 0.922
- relative viability (NCI-H1395; first compound 0.6325 µM): 0.701
- relative viability (NCI-H1395; first compound 2 µM): 1.09
- relative viability (NCI-H1395; first compound 6.325 µM): 0.89
- relative viability (NCI-H1395; first compound 20 µM): 0.908
- relative viability (EBC-1; first compound 0.2 µM): 0.22
- relative viability (EBC-1; first compound 0.6325 µM): 0.214
- relative viability (EBC-1; first compound 2 µM): 0.203
- relative viability (EBC-1; first compound 6.325 µM): 0.216
- relative viability (EBC-1; first compound 20 µM): 0.201
- relative viability (IA-LM; first compound 0.2 µM): 0.686
- relative viability (IA-LM; first compound 0.6325 µM): 0.746
- relative viability (IA-LM; first compound 2 µM): 0.724
- relative viability (IA-LM; first compound 6.325 µM): 0.73
- relative viability (IA-LM; first compound 20 µM): 0.637

— the supplement of paper PMC10307832
